Assay in all cases: ≥ marks a high value that may be exact or a test limit, other limits are often not marked, values filed in µg/mL are converted to µM
Assay [1] has as its system Staphylococcus aureus ATCC 25923.
Assay [2] has as its system Pseudomonas aeruginosa H103.
Assay [3] relates to Enterococcus faecalis ATCC 29212.
The next assay relates to Candida albicans.
Assay [4] concerns Salmonella enterica serovar Typhimurium.
A further assay deals with Escherichia coli UB1005.
Assay [5] concerns Staphylococcus epidermidis.
Assay [6] deals with Pseudomonas aeruginosa ATCC 27853.
Assay [7] relates to Staphylococcus aureus NCTC 12493.
In assay [8] the test system is Klebsiella pneumoniae ATCC 43816.
For assay [9], the system named is Escherichia coli NCTC 10418.
Assay [10] deals with Staphylococcus aureus NCTC 10788.
The subject of assay [11] is Candida albicans NCYC 1467.
Assay [12] has as its system Enterococcus faecalis NCTC 12697.
The subject of assay [13] is Staphylococcus aureus ATCC 29213.
The subject of assay [14] is Staphylococcus aureus NCTC 8325.
Assay [15] deals with Salmonella enterica subsp. enterica serovar Enteritidis.
The test system of assay [16] is Candida albicans ATCC 90028.
Assay [17] concerns Escherichia coli ATCC 25922.

Converted amounts (≈) assume the structure as drawn.

Broadly, the MIC is the lowest concentration that inhibits growth of the organism. `CC[C@H](C)[C@H](NC(=O)[C@@H](NC(=O)[C@@H](NC(=O)[C@H](CCCN=C(N)N)NC(=O)[C@H](CCCN=C(N)N)NC(=O)[C@H](C)NC(=O)[C@H](CC(C)C)NC(=O)[C@@H](N)CCCN=C(N)N)C(C)C)C(C)C)C(=O)N[C@@H](CCCN=C(N)N)C(=O)N[C@H](C(=O)N[C@@H](C)C(=O)N[C@@H](CCCN=C(N)N)C(N)=O)C(C)C` [RLARRVVIRVAR]: the MIC in assay [1] is 43 µM (≈ 63 µg/mL); in assay [2], at least 43 µM; in assay [3], 85.3 µM (≈ 125 µg/mL); with Candida albicans it was 85.3 µM (≈ 125 µg/mL); in assay [4], 21.2 µM (≈ 31 µg/mL); against Escherichia coli UB1005, 10.9 µM (≈ 16 µg/mL). In [5], this molecule returned an MIC of 10.9 µM (≈ 16 µg/mL).

Consider `CC[C@H](C)[C@H](NC(=O)[C@H](C)NC(=O)[C@H](C)NC(=O)[C@@H]1CCCN1C(=O)[C@@H](NC(=O)[C@H](CC(C)C)NC(=O)[C@H](CCCCN)NC(=O)CNC(=O)[C@H](C)NC(=O)[C@H](CS)NC(=O)[C@H](CCCCN)NC(=O)[C@H](CCCCN)NC(=O)[C@H](CO)NC(=O)[C@@H](NC(=O)[C@H](CCCCN)NC(=O)[C@H](CS)NC(=O)[C@@H](NC(=O)[C@H](CCCCN)NC(=O)[C@H](CC(C)C)NC(=O)[C@@H](NC(=O)[C@H](C)NC(=O)CNC(=O)[C@H](CC(C)C)NC(=O)[C@@H](N)Cc1ccccc1)C(C)C)C(C)C)[C@@H](C)CC)C(C)C)C(=O)O` [FLGAVLKVCKISKKCAGKLVPAAI], for which the MIC in assay [6] is 128 µM (≈ 315 µg/mL); in assay [7], at least 128 µM; in assay [8], at least 256 µM; in [9], 16 µM (≈ 39.3 µg/mL); in assay [10], at least 32 µM; in [11] it was at least 128 µM. For the same molecule, the MIC in [12] is at least 128 µM.

On to `CC[C@H](C)[C@H](NC(=O)[C@H](CCCN=C(N)N)NC(=O)[C@H](CC(C)C)NC(=O)[C@H](CCC(N)=O)NC(=O)[C@@H](N)C(C)C)C(=O)N[C@@H](CCCN=C(N)N)C(=O)N[C@H](C(=O)N[C@@H](CCCN=C(N)N)C(=O)N[C@H](C(=O)N[C@H](C(=O)N[C@@H](CCCN=C(N)N)C(=O)N[C@@H](CCCCN)C(N)=O)[C@@H](C)CC)C(C)C)C(C)C` [VQLRIRVRVIRK], for which the MIC in assay [1] was determined as 7.81 µM (≈ 12 µg/mL); in assay [2], 3.91 µM (≈ 6 µg/mL); against Candida albicans, 3.91 µM (≈ 6 µg/mL); in assay [4], 3.91 µM (≈ 6 µg/mL); against Escherichia coli UB1005, 1.95 µM (≈ 3 µg/mL); in assay [5] it was 1.04 µM (≈ 1.6 µg/mL).

On to `CC[C@H](C)[C@@H]1NC(=O)[C@H](C)NC(=O)[C@@H](NC(=O)[C@H](Cc2ccccc2)NC(=O)[C@@H](NC(=O)[C@H](CCCCN)NC(=O)[C@@H]2CCCN2C(=O)[C@H](CC(C)C)NC(=O)[C@@H](N)Cc2ccccc2)[C@@H](C)CC)CSSC[C@@H](C(=O)O)NC(=O)[C@H](CCCCN)NC(=O)[C@H](CCCCN)NC(=O)[C@H]([C@@H](C)O)NC1=O` [FLPKIFCAITKKC], for which the MIC in assay [6] is over 512 µM; in assay [7], at least 256 µM; in assay [8], at least 512 µM; in assay [9] it was at least 256 µM; in assay [10] it was at least 256 µM; in assay [11] it was at least 512 µM. Also, in assay [12], the MIC is at least 512 µM.

In the case of `CC[C@H](C)[C@H](NC(=O)[C@H](CO)NC(=O)[C@@H]1CCCN1C(=O)[C@H](CC(C)C)NC(=O)[C@@H](NC(=O)[C@H](CCCCN)NC(=O)[C@H](C)NC(=O)[C@H](C)NC(=O)[C@H](CC(C)C)NC(=O)CNC(=O)[C@H](C)NC(=O)[C@@H](NC(=O)[C@@H](NC(=O)[C@@H]1CCCN1C(=O)[C@H](CC(C)C)NC(=O)[C@@H](N)Cc1ccccc1)C(C)C)C(C)C)C(C)C)C(=O)N[C@H](C(=O)N[C@H]1CSSC[C@@H](C(=O)O)NC(=O)[C@H](CCCCN)NC(=O)[C@H](CCCCN)NC(=O)[C@H]([C@@H](C)O)NC(=O)[C@H](C(C)C)NC(=O)[C@H](C)NC1=O)[C@@H](C)CC` [FLPVVAGLAAKVLPSIICAVTKKC], the MIC in assay [13] is 2.32 µM (≈ 5.65 µg/mL); in [14], 7 µM (≈ 17.1 µg/mL); in assay [15], at least 52.4 µM.

As to `CC[C@H](C)[C@H](N)C(=O)N1CCC[C@H]1C(=O)N[C@@H](Cc1cnc[nH]1)C(=O)N[C@@H](C)C(=O)N[C@H](C(=O)N[C@@H](CCCCN)C(=O)N[C@@H](C)C(=O)N[C@H](C(=O)N[C@@H](CO)C(=O)N[C@@H](CC(=O)O)C(=O)N[C@@H](CC(C)C)C(=O)N[C@H](C(N)=O)[C@@H](C)CC)[C@@H](C)CC)C(C)C` [IPHAVKAISDLI], the MIC in assay [14] is at least 200 µM; in [16] it was at least 200 µM; in [17], over 200 µM.

Take `CC[C@H](C)[C@H](NC(=O)CNC(=O)[C@H](CO)NC(=O)[C@@H](NC(=O)[C@@H](NC(=O)[C@H](CCCCN)NC(=O)[C@H](C)NC(=O)[C@H](CC(C)C)NC(=O)[C@H](C)NC(=O)CNC(=O)[C@H](CC(C)C)NC(=O)[C@@H](N)Cc1ccccc1)[C@@H](C)CC)[C@@H](C)CC)C(=O)N[C@@H](Cc1ccccc1)C(N)=O` [FLGALAKIISGIF]: the MIC in [14] was 4 µM (≈ 5.39 µg/mL); in [17], over 100 µM.

For the molecule `CC[C@H](C)[C@H](NC(=O)[C@H](CCCCN)NC(=O)[C@H](CO)NC(=O)[C@H](Cc1c[nH]c2ccccc12)NC(=O)[C@H](CC(C)C)NC(=O)CN)C(=O)N[C@@H](CCCCN)C(=O)N[C@@H](CC(=O)O)C(=O)N[C@@H](C)C(=O)N[C@@H](C)C(=O)N[C@@H](CCCCN)C(=O)N[C@H](C(=O)N[C@@H](C)C(=O)NCC(=O)N[C@@H](CCCCN)C(=O)N[C@@H](C)C(=O)N[C@@H](C)C(=O)N[C@@H](CC(C)C)C(=O)NCC(=O)N[C@@H](Cc1ccccc1)C(=O)N[C@H](C(=O)N[C@@H](CC(N)=O)C(=O)N[C@@H](CCC(=O)O)C(=O)N[C@@H](CCSC)C(=O)N[C@H](C(N)=O)C(C)C)C(C)C)[C@@H](C)O` [GLWSKIKDAAKTAGKAALGFVNEMV], the MIC in assay [6] was 16 µM (≈ 41.7 µg/mL); in assay [7] it was at least 32 µM; in assay [8], 8 µM (≈ 20.8 µg/mL); in [9], 8 µM (≈ 20.8 µg/mL); in [10], 16 µM (≈ 41.7 µg/mL); in assay [11], at least 64 µM. The molecule also showed an MIC in assay [12] of 16 µM (≈ 41.7 µg/mL).

In the case of `CC[C@H](C)[C@H](NC(=O)[C@H](C)NC(=O)[C@H](CO)NC(=O)[C@@H](NC(=O)[C@H](C)NC(=O)[C@H](CCCCN)NC(=O)[C@@H]1CCCN1C(=O)[C@@H](NC(=O)[C@H](CC(C)C)NC(=O)[C@H](CO)NC(=O)[C@H](CC(C)C)NC(=O)[C@@H](N)Cc1ccccc1)[C@@H](C)CC)[C@@H](C)CC)C(=O)N[C@@H](CO)C(=O)N[C@@H](C)C(=O)N[C@@H](CC(C)C)C(=O)N[C@H](C(=O)N[C@@H](CC(N)=O)C(=O)N[C@@H](Cc1cnc[nH]1)C(=O)N[C@@H](Cc1ccccc1)C(N)=O)[C@@H](C)CC` [FLSLIPKAISAISALINHF], the MIC was over 512 µM in assay [6]; at least 32 µM in assay [7]; at least 512 µM in assay [8]; at least 512 µM in assay [9]; 2 µM (≈ 4.11 µg/mL) in assay [10]; 4 µM (≈ 8.22 µg/mL) in [11]. The MIC in [12] was at least 32 µM.

In the case of `CC[C@H](C)[C@@H]1NC(=O)[C@H](C)NC(=O)[C@@H](NC(=O)[C@H](Cc2ccccc2)NC(=O)[C@@H](NC(=O)[C@H](CCCCN)NC(=O)[C@H](CO)NC(=O)[C@H](Cc2ccccc2)NC(=O)[C@@H](NC(=O)[C@H](CC(N)=O)NC(=O)[C@H](C)NC(=O)[C@H](C)NC(=O)[C@@H](NC(=O)[C@H](CO)NC(=O)[C@H](C)NC(=O)[C@@H](NC(=O)[C@@H](NC(=O)[C@@H]2CCCN2C(=O)[C@H](CC(C)C)NC(=O)[C@@H](N)Cc2ccccc2)[C@@H](C)CC)[C@@H](C)CC)C(C)C)C(C)C)[C@@H](C)CC)CSSC[C@@H](C(=O)O)NC(=O)[C@H](CCCCN)NC(=O)[C@H](CCCCN)NC(=O)[C@H](CO)NC1=O` [FLPIIASVAANVFSKIFCAISKKC], the values for the MIC in assay [14], in [16] and in assay [17] were 27 µM (≈ 69.4 µg/mL), 29 µM (≈ 74.5 µg/mL) and 78 µM (≈ 200 µg/mL), respectively.

The values are drawn from DBAASP.
